These results are taken from PubChem BioAssay (NCI).

What is called GI50 is the concentration that inhibits growth by half. As usually defined, the TGI is the concentration at which net growth stops. The low end stands for more potent growth arrest, the high end for less potent growth arrest.

Several values for one entry are separate records, joined by “and”; a condition that tells them apart may be missing. Equal entries are not always repeated.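 Briefly, cells in 96-well plates were exposed to five compound concentrations for 48 h, and endpoints were estimated by linear interpolation. GI50 marks 50% less growth. Definition used: TGI = concentration required for complete inhibition of growth.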

Holding throughout (assay): DTP human tumour cell line panel, 48 h
Assay [1] has as its system SK-MEL-5 melanoma.
Assay [2] concerns HOP-92 NSCLC.
In assay [3] the test system is MOLT-4 leukemia.
The test system of assay [4] is HT29 colon.
Assay [5] relates to IGROV1 ovarian.
Assay [6] deals with SK-MEL-2 melanoma.
Assay [7] concerns 786-0 renal.
In assay [8] the test system is A549 NSCLC.
Assay [9] deals with DU-145 prostate.
The subject of assay [10] is HL-60(TB) leukemia.

As to `CSc1ccc2c(c1)N(CCC1CCCCN1C)c1ccccc1S2` (stereo not given), the GI50 in assay [1] is 1.86 µM and 1.64 µM; in assay [2], 2.11 µM; in assay [3], 3.61 µM and 3.13 µM; in assay [4], 4.08 µM and 2.54 µM; in assay [5], 5.89 µM; in assay [6], 10.7 µM. Moreover, the GI50 in [7] was 11.7 µM and 4.92 µM; in assay [8] it was 10.9 µM and 2.65 µM; in assay [9], 6.06 µM and 4.15 µM; in [10], 13.4 µM and 3.12 µM. Also, the TGI was 3.89 µM and 3.02 µM in [1]; 8.51 µM in assay [2]; 13.6 µM and 10 µM in assay [3]; 15.1 µM and 7.9 µM in assay [4]; 20.1 µM in assay [5]; 25.8 µM in [6]. Besides, the TGI in assay [7] is 25.7 µM and 19.4 µM; in assay [8], 24.1 µM and 10.3 µM; in assay [9], 17.9 µM and 14.2 µM; in [10], 30.3 µM and 9.22 µM.

With `O=C(O)C1C2C=CC(C2)C1C(=O)O` (stereo not given), the GI50 in assay [1], in assay [2], in [3], in assay [4], in assay [5] and in [6] was greater than 100 µM each time. Further, the GI50 in assay [7], in [8], in assay [9] and in [10] was greater than 100 µM in each case. Further, the total growth inhibition concentration (TGI) in [1], in [2], in assay [3], in assay [4], in assay [5] and in assay [6] was greater than 100 µM each time. Besides, the concentration for total growth inhibition (TGI) in assay [7], in assay [8], in assay [9] and in assay [10] was greater than 100 µM each time.

As for `O=C(c1ccco1)c1c(C(F)(F)F)nc2ccc(C(F)(F)F)cc2[n+]1[O-]`, the GI50 is 31.4 µM in assay [1]; 21 µM in assay [2]; greater than 100 µM in [3]; greater than 61.4 µM in assay [4]; 35.6 µM in assay [5]; greater than 64.6 µM in [6]. Moreover, the GI50 in assay [7] is 27 µM; in [8] it was greater than 64.4 µM; in assay [9] it was 27.3 µM; in assay [10], greater than 100 µM. Also, the TGI was greater than 67.1 µM in assay [1]; 49.2 µM in assay [2]; greater than 100 µM in assay [3]; greater than 100 µM in [4]; greater than 92.7 µM in assay [5]; greater than 100 µM in assay [6]. The TGI in assay [7] is 62 µM; in assay [8], greater than 100 µM; in assay [9] it was greater than 75.8 µM; in assay [10], greater than 100 µM.

Regarding `O=C1CCCCC=C1C[N+](=O)[O-]`, the GI50 in [1] is 26.9 µM; in assay [2], 29 µM; in assay [3], 11.9 µM; in assay [4], 19.3 µM; in assay [5], 33 µM; in assay [6], 19.5 µM. The GI50 was 17.6 µM in assay [7], 38.2 µM in [8], 27.3 µM in [9] and 14 µM in [10]. For the same compound, the TGI in [1] was 74.3 µM; in [2], 51.9 µM; in [3], 31 µM; in [4], 50.3 µM; in [5] it was greater than 100 µM; in [6] it was 44.4 µM. Besides, the TGI is 39.6 µM in [7], greater than 100 µM in assay [8], 96.3 µM in [9] and greater than 100 µM in assay [10].

On to `CCN(Cc1ccccc1Cl)c1ccc(CO)c(Cl)c1`, for which the GI50 was 4.11 µM in assay [1]; 0.932 µM in assay [2]; 15.8 µM in [3]; 5.94 µM in assay [4]; less than 0.0418 µM in [5]; 2.39 µM in assay [6]. Further, the GI50 was 12.8 µM in assay [7], 3.06 µM in [8], 14 µM in [9] and 13.9 µM in assay [10]. Moreover, the TGI in assay [1] stood at 17.1 µM; in assay [2], 8.25 µM; in assay [3] it was 38.1 µM; in [4] it was 20 µM; in [5], 0.138 µM; in [6] it was 16.1 µM. For the same compound, the TGI in assay [7] stood at 26.1 µM; in [8], 18.7 µM; in [9] it was 27.8 µM; in [10], 33.8 µM.

On to `CCOc1ccc2c(C)cc(=O)oc2c1`, for which the total growth inhibition concentration (TGI) in assay [1], in assay [2], in [3], in assay [4], in assay [5] and in [6] was greater than 100 µM throughout. Moreover, the TGI in assay [7], in assay [8], in [9] and in assay [10] was greater than 100 µM in each case.
